Results on 5 compounds are retold here after patent publication US20240270762A1, “PENICILLIN-BINDING PROTEIN INHIBITORS” (priority 2021, published 2024).

In one test the target is T1, A. baumannii PBP1a (Acinetobacter baumannii, UniProt A0ABX6CK30).
T1 sequence (A0ABX6CK30 1-851): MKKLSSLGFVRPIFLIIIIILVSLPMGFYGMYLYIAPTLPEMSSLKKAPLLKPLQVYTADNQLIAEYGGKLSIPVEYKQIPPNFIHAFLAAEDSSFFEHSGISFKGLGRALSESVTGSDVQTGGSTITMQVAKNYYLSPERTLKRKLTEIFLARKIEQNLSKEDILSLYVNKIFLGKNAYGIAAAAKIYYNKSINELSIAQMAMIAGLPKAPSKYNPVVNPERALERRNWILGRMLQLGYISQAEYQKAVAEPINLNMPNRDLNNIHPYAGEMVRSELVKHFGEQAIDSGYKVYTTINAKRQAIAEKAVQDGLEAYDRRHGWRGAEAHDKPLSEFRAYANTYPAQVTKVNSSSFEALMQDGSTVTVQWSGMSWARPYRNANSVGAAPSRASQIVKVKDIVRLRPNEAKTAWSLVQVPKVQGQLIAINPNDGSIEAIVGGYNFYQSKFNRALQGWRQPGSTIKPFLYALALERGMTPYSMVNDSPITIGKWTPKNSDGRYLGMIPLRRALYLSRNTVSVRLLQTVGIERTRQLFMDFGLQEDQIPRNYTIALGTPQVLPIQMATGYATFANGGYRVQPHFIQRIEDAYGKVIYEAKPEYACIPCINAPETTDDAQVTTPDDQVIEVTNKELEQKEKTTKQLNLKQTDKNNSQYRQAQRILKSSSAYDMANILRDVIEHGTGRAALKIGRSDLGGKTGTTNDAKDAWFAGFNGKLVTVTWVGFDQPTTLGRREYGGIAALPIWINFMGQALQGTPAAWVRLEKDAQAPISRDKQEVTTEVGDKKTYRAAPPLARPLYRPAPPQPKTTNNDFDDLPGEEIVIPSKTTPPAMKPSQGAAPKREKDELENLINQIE
The test is described as follows: Bocillin-FL competition binding via gel filtration, A. baumannii PBP1a. How it is done:
(§1) Affinity to A. baumannii PBP1a and PBP2 was assessed a competitive equilibrium binding assay using Bocillin-FL as the reporter molecule. Enzyme was pre-incubated with increasing concentrations of inhibitors, prior to addition of Bocillin and further incubation for 15 minutes. PBP bound with Bocillin-FL was separated by gel filtration using 96-well Zeba Spin size exclusion plates, and the fluorescence measured. The inhibitor affinity (reported as the EC50) was determined by plotting the fraction of PBP bound with Bocillin-FL at each inhibitor concentration against the inhibitor concentration, and fitting the data to the following equation:
(§2) [formula] • where y is the fraction bound at a given inhibitor concentration, ymin is the fraction bound when the enzyme is completely inactivated, ymax is the maximum (uninhibited) fraction bound, n is the Hill coefficient, and x is the inhibitor concentration.

The next test deals with A. baumannii PBP2 (Acinetobacter baumannii, UniProt D0C8Z9). The test is described as follows: Bocillin-FL competition binding via gel filtration, A. baumannii PBP2. The method, then: as §1, §2
The next test concerns B. pseudomallei Bp82. The test is described as follows: microbe, parasite or virus in culture. The format is cell-based. As to conditions: Burkholderia pseudomallei, BP82, read-out: Minimum inhibitory concentration, B. pseudomallei Bp82.
In test [1] the test system is B. thailandensis ATCC 700388. The experiment in a line: microbe, parasite or virus in culture. It counts as cell-based. As to conditions: Burkholderia thailandensis, ATCC700388, read-out: Minimum inhibitory concentration (MIC), B. thailandensis ATCC 700388.
Test [2] has as its system B. humptydooensis ATCC BAA-2767. The experiment in a line: microbe, parasite or virus in culture. The format is cell-based. As to conditions: Burkholderia humptydooensis, ATCCBAA2767, read-out: Minimum inhibitory concentration (MIC), B. humptydooensis ATCC BAA-2767.
Test [3] has as its target T2, PBP3 from Pseudomonas aeruginosa (PAO1) (Pseudomonas aeruginosa, UniProt G3XD46).
T2 construct: made in house
The test is described as follows: Bocillin-FL fluorescence polarization competition binding, P. aeruginosa PBP3. As to conditions: Binding affinity to P. aeruginosa PBP3; fluorescence polarization competition binding assay using Bocillin-FL; read-out: P. aeruginosa PBP3 Potency. An excerpt:
To determine the ability of boronic acid-based test PBP inhibitors to bind Penicillin Binding Proteins (PBPs), Bocillin-FL (fluorescently-labeled penicillin V; ThermoFisher Scientific) was used in a fluorescence polarization (FP) competition binding assay to assess inhibitor binding to PBP3 from Escherichia coli (K-12), PBP3 from Pseudomonas aeruginosa (PAO1), PBP1a and PBP3 from Acinetobacter baumannii (ATCC 19606), and PBP2 from Neisseria gonorrhoeae (FA19). PBPs were cloned and purified as described previously (E. coli PBP3, King, D. T, et al., ACS Infectious Diseases 2015, 1, 175-184; P. aeruginosa PBP3, Han et. al., PNAS 2010, 107 (51), 22002-22007; A. baumannii PBPs, Penwell et. al., Antimicrob. Agents Chemother. 2015, 59 (3), 1680-1689; N. gonorrhoeae PBP2, Singh et. al., J. Biol. Chem. 2019, 294 (38), 14020-14032). To establish assay conditions for competition binding, enzyme titration/saturation binding experiments were initially performed. Bocillin-FL was prepared at 0.2 μM in a buffer comprised of 50 mM Hepes (pH 8.0), 300 mM NaCl and 10% (v/v) glycerol for reactions with E. coli, P. aeruginosa and N. gonorrhoeae PBPs, and 25 mM Tris (pH 8.0), 200 mM NaCl, 10% (v/v) glycerol and 0.005% (v/v) Tween 20 for reactions with A. baumannii PBPs. Saturation binding was performed by mixing 40 μl of PBP solutions ranging in concentrations from 0-24 μM with 40 μl of the 0.2 μM Bocillin-FL solution, in individual wells of a black 384-well microplate. FP was measured immediately upon mixing (Excitation, 490 nm; Emission, 520 nm; g-factor, 0.96), using a Cytation3 (BioTek) microplate reader and measured continuously for up to 120 minutes. The FP response stabilized after 15 minutes for P. aeruginosa and A. baumannii PBP3, 30 minutes for E. coli PBP3 and A. baumannii PBP1a, and less than 1 minute for N. gonorrhoeae PBP2. […] The competition binding assay (80 μl final volume) was validated using beta-lactams and PBPs at final concentrations of: 1.5 μM for E. coli PBP3; 0.75 μM for P. aeruginosa PBP3; 1 μM for A. baumannii PBP1a; 0.2 μM for A. baumannii PBP3; and 0.25 μM for N. gonorrhoeae PBP2. Bocillin-FL was at 0.1 μM (0.05 μM with A. baumannii PBP1a) and beta-lactam concentrations ranged from 0-1,000 μM. E. coli PBP3 was incubated with increasing concentrations of ampicillin in a black 384-well microplate (Corning) for 30 minutes. P. aeruginosa PBP3 was incubated for 15 minutes with aztreonam, whereas A. baumannii PBP1a and PBP3 were incubated for 15 minutes with meropenem, and then Bocillin-FL was added followed immediately by the FP measurement for up to 60 minutes. […] The beta-lactam potency was reported as the concentration of beta-lactam required to reduce the amount of PBP bound-Bocillin-FL by 50% (EC50). […] The EC50 of aztreonam was determined to be <0.5 μM for P. aeruginosa PBP3. […] Binding assays for boronic acid PBP inhibitors were performed in an identical fashion for the respective PBPs.
Background: Fluorescence polarisation rises when a labelled molecule tumbles more slowly, as on binding a larger partner.

The next test relates to A. baumannii ATCC 17978. The experiment in a line: microbe, parasite or virus in culture. The format is cell-based. As to conditions: Acinetobacter baumannii, ATCC17978, read-out: Minimum inhibitory concentration (MIC), A. baumannii ATCC 17978.
Another test concerns A. baumannii ATCC 19606. The experiment in a line: microbe, parasite or virus in culture. It counts as cell-based. As to conditions: Acinetobacter baumannii, ATCC19606, read-out: Minimum inhibitory concentration (MIC), A. baumannii ATCC 19606.
Another test deals with A. baumannii 1258916. The experiment in a line: microbe, parasite or virus in culture. It counts as cell-based, Acinetobacter baumannii. As to conditions: Acinetobacter baumannii, 1258916, read-out: Minimum inhibitory concentration (MIC), A. baumannii 1258916.
The next test concerns A. baumannii CDC-0033. The experiment in a line: microbe, parasite or virus in culture. As to conditions: Acinetobacter baumannii, CDC0033, read-out: Minimum inhibitory concentration (MIC), A. baumannii CDC-0033. The format is cell-based.
Another test relates to A. baumannii CDC-0036. The test is described as follows: microbe, parasite or virus in culture. It counts as cell-based. As to conditions: Acinetobacter baumannii, CDC0036, read-out: Minimum inhibitory concentration (MIC), A. baumannii CDC-0036.
In a further test the test system is A. baumannii CDC-0045. The experiment in a line: microbe, parasite or virus in culture. It counts as cell-based. As to conditions: Acinetobacter baumannii, CDC0045, read-out: Minimum inhibitory concentration (MIC), A. baumannii CDC-0045.
[4] abbreviates: competition binding assay using Bocillin-FL via gel filtration, read-out: A. baumannii PBP1a Potency.

Structures are written as SMILES. In brackets after ≈: the same amount, converted by molar mass. Where two headings read alike, the source gives them in different places.

Sequence of A. baumannii PBP2 (D0C8Z9 whole entry): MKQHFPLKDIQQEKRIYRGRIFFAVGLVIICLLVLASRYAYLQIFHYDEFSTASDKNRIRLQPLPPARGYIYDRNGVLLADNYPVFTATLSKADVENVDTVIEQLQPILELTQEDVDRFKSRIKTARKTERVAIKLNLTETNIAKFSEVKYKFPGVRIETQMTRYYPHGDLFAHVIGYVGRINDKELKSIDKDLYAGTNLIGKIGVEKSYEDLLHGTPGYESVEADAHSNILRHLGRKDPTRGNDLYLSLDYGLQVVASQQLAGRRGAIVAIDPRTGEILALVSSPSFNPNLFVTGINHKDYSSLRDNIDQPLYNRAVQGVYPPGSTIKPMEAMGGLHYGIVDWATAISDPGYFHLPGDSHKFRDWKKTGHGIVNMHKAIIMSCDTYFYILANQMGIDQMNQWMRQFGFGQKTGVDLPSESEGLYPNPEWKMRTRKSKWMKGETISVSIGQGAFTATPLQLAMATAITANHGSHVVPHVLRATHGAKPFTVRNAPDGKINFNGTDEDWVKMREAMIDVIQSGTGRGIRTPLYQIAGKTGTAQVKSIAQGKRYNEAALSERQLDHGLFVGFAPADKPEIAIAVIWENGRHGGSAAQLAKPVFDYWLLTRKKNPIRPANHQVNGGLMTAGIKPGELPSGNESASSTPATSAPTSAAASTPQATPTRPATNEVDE
T2 sequence (G3XD46 whole entry): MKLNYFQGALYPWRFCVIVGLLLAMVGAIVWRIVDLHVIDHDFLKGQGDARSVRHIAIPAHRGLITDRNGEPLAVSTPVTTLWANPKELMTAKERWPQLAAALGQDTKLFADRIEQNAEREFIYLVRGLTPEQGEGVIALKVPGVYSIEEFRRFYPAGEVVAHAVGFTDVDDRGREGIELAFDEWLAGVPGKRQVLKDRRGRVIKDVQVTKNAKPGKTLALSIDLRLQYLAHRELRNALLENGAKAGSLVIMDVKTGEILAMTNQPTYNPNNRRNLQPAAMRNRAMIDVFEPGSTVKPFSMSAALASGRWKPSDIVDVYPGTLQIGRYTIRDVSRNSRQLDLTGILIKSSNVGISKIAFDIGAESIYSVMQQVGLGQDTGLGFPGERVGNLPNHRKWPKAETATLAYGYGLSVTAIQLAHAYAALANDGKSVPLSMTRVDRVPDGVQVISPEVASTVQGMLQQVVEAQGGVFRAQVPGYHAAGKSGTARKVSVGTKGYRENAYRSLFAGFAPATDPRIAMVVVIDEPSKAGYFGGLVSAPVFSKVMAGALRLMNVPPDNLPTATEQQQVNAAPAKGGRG

Regarding `O=C(O)c1c(F)ccc2c1OB(O)[C@@H](NC(=O)C(NC(=O)N1CCN(C3CCN(Cc4ccc(O)c(F)c4)CC3)C1=O)c1cc(F)c(O)c(O)c1Cl)C2` (single isomer, unassigned) [Example 610], the EC50 was less than 10 µM at A. baumannii PBP1a (setting [4]) and 10 to 50 µM on A. baumannii PBP2. In addition, the MIC (with B. pseudomallei Bp82; in [1]; in test [2]) was less than 1 µg/mL throughout.
Turning to `O=C(O)c1c(F)ccc2c1OB(O)[C@@H](NC(=O)C(NC(=O)N1CCN(C3CCN(Cc4cc(O)cc(O)c4)CC3)C1=O)c1cc(F)c(O)c(O)c1Cl)C2` (single isomer, unassigned) [Example 612], the figures for the EC50 at A. baumannii PBP1a (setting [4]) and at A. baumannii PBP2 were less than 10 µM and 10 to 50 µM, respectively. Also, the MIC (in the test on B. pseudomallei Bp82; in [1]; in test [2]) was less than 1 µg/mL in each case.
As for `O=C(O)c1c(F)ccc2c1OB(O)[C@@H](NC(=O)[C@H](NC(=O)N1CCN(C3CCN(C(=O)Nc4cc(O)c(O)c(Cl)c4)CC3)C1=O)c1ccc(P(=O)(O)O)cc1)C2` (single isomer, unassigned) [Example 501], the IC50 in test [3] was less than 10 µM. Further, the EC50 at A. baumannii PBP1a (setting [4]) and at A. baumannii PBP2 was less than 10 µM in each case. Further, the MIC was 2 to 4 µg/mL (≈ 2.44 to 4.88 µM) with B. pseudomallei Bp82; less than 1 µg/mL in the test with A. baumannii ATCC 17978; less than 1 µg/mL with A. baumannii ATCC 19606; 2 to 4 µg/mL (≈ 2.44 to 4.88 µM) in the test on A. baumannii 1258916; 2 to 4 µg/mL (≈ 2.44 to 4.88 µM) in the test with A. baumannii CDC-0033; 2 to 4 µg/mL (≈ 2.44 to 4.88 µM) in the test with A. baumannii CDC-0036. Also, the MIC (with A. baumannii CDC-0045; in [1]; in [2]) was less than 1 µg/mL each time.
In the case of `O=C(O)c1c(F)ccc2c1OB(O)[C@@H](NC(=O)C(NC(=O)N1CCN(C3CCN(Cc4ccc(O)cc4)CC3)C1=O)c1cc(F)c(O)c(O)c1Cl)C2` (single isomer, unassigned) [Example 609], the EC50 on A. baumannii PBP1a (setting [4]) was less than 10 µM; at A. baumannii PBP2, 10 to 50 µM. For the same compound, the MIC (in the test on B. pseudomallei Bp82; in test [1]; in test [2]) was less than 1 µg/mL in each case.
On to `O=C(O)c1c(F)ccc2c1OB(O)[C@@H](NC(=O)C(NC(=O)N1CCN(C3CCN(Cc4cccc(O)c4)CC3)C1=O)c1cc(F)c(O)c(O)c1Cl)C2` (stereo partly drawn) [Example 605, (3R)-3-(2-(2-chloro-5-fluoro-3,4-dihydroxyphenyl)-2-(3-(1-(3-hydroxybenzyl)piperidin-4-yl)-2-oxoimidazolidine-1-carboxamido)acetamido)-7-fluoro-2-hydroxy-3,4-dihydro-2H-benzo[e][1,2]oxaborinine-8-carboxylic acid], for which the EC50 on A. baumannii PBP1a was less than 10 µM; on A. baumannii PBP2, 10 to 50 µM. Moreover, the MIC (with B. pseudomallei Bp82; in test [1]; in test [2]) was less than 1 µg/mL throughout.
